Source: PubChem BioAssay (NCI)
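Tested at 5 concentrations; 48 h exposure; 96-well plates; endpoints linearly interpolated, else capped at highest concentration. TGI is the concentration that stops growth completely.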

Key:
Assay in all cases: NCI-60 cell line screen, 48 h
[1] = test system: TK-10 renal
[2] = test system: SN12C renal
[3] = test system: MCF7 breast
[4] = test system: OVCAR-3 ovarian
[5] = test system: HT29 colon
[6] = test system: M14 melanoma
[7] = test system: IGROV1 ovarian
[8] = test system: NCI/ADR-RES ovarian
[9] = test system: U251 CNS
[10] = test system: SK-MEL-2 melanoma

Row | Structure (SMILES) | TGI [1] [µM] | TGI [2] [µM] | TGI [3] [µM] | TGI [4] [µM] | TGI [5] [µM] | TGI [6] [µM] | TGI [7] [µM] | TGI [8] [µM] | TGI [9] [µM] | TGI [10] [µM]
1 | N#Cc1nc(CCC(c2nc(C#N)c(N)o2)N2C(=O)c3ccccc3C2=O)oc1N (stereo not given) | > 100 | > 100 | > 100 | > 100 | > 100 | > 100 | > 100 | > 100 | > 100 | > 100
2 | NC1CC(=O)c2sccc21 (stereo not given) | > 100 | > 100 | > 100 | > 100 | > 100 | > 100 | > 100 | > 100 | > 100 | 79.3
3 | Nc1ccc(Oc2ccc(C34CC5CC6C3CC3CC4C(C5)C6(c4ccc(Oc5ccc(N)c(O)c5)cc4)C3)cc2)cc1O | 19 | 11.4 | > 42.3 | 8.28 | > 34.7 | 8.71 | 22.6 | > 92.8 | 13.6 | 39
4 | c1ccc2c(c1)CC1COc3ccccc3C1O2 (stereo not given) | > 100 | > 100 | > 100 | > 100 | > 100 | > 100 | > 100 | > 100 | > 100 | > 100
5 | CC1(C)CCC(=O)NC1CC(=O)CC1NC(=O)CCC1(C)C (stereo not given) | > 100 | > 100 | > 100 | > 100 | > 100 | > 100 | > 100 | > 100 | > 100 | > 100
6 | Cc1cc2nc(N3C(=O)/C(=C/c4ccc(Cl)cc4)N=C3c3ccccc3)sc2cc1C | > 100 | 87.6 | > 100 | 50 | 63.2 | > 100 | > 100 | 87.3 | 84.7 | 89.8
7 | COc1ccc(Oc2nc(C#CC(C)(C)O)nc(Oc3ccc(OC)cc3)n2)cc1 | 25.5 | 28.1 | 3.15 | 4.58 | 10.8 | 4.24 | 18.9 | 46.8 | 15.6 | 22.8
8 | C#CCn1c(=O)c(Cl)cn(/C(=C/C(=O)OCC)C(=O)OCC)c1=O | 8.09 | 50.6 | 22.7 | 11.7 | 39.5 | 22.8 | 35.1 | > 79.3 | 35 | 35.6
